Data set [1] deals with T1, Sodium- and chloride-dependent glycine transporter 1 (Homo sapiens, UniProt P48067).
T1 sequence (P48067 whole entry): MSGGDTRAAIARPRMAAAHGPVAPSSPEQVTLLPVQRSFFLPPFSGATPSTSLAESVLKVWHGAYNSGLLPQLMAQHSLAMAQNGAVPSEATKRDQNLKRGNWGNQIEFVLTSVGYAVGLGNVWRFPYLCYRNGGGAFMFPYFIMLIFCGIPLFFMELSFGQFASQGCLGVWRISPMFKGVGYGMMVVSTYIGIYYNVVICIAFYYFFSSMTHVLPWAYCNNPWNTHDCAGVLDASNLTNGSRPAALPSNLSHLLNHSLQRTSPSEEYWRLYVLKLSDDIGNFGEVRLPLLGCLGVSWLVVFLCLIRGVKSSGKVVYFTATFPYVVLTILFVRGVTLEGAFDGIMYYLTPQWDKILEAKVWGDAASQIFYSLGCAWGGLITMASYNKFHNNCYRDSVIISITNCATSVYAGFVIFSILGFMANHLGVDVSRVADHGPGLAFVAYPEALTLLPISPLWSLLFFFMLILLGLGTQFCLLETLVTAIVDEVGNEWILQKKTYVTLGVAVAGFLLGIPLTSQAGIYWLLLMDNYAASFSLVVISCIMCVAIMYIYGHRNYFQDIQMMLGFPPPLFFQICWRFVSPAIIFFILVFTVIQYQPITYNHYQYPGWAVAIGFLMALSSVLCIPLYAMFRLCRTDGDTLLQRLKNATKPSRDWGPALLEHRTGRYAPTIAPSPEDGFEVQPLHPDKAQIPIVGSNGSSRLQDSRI
The data set can be described thus: Inhibition of [3H]glycine uptake at GlyT1.

Data set [2] has as its target T2, Sodium- and chloride-dependent glycine transporter 2 (Homo sapiens, UniProt Q9Y345).
T2 sequence (Q9Y345 whole entry): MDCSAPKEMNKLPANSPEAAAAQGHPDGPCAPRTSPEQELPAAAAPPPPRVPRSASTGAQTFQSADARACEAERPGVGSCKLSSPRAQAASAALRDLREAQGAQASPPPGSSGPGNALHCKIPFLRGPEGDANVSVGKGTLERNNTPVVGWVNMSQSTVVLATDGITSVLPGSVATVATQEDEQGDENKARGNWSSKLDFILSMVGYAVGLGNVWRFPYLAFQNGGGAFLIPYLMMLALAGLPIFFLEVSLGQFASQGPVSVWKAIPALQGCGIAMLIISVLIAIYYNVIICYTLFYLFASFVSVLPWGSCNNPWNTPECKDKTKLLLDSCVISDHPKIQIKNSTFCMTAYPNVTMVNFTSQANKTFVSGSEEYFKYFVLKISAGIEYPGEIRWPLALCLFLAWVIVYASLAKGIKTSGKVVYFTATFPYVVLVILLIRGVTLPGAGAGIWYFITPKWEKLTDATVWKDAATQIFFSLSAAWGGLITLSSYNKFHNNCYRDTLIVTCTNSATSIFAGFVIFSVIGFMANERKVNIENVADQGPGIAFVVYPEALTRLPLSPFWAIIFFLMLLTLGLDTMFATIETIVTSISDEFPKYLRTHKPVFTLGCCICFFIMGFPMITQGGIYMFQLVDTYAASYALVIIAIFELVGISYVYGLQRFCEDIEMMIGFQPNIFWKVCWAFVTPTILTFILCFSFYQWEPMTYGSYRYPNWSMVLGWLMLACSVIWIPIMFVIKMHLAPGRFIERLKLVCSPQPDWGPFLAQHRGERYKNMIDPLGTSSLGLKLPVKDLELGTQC
In words: Inhibition of [3H]glycine uptake at GlyT2.

Data set [3] in a line: in vitro. The conditions noted are these: mouse, microsomes, Max Achievable Bioavailability.
Description: Maximum achievable bioavailability in mouse microsome
A short description of data set [4]: in vitro. Conditions: human, microsomes, Max Achievable Bioavailability.
Description: Maximum achievable bioavailability in human microsome

The compound `O=C1NCC(c2ccccc2)C12CCN(C1(c3ccc(C(F)(F)F)cc3)CCCCC1)CC2` (single isomer, unassigned; diastereomer 1) came in with an EC50 in data set [1] of 1210 nM. For the compound `Cc1ccc(C2(N3CCC4(CC3)C(=O)NCC4c3ccccc3)CCCCC2)cc1` (stereo in doubt), the EC50 in data set [1] is 284 nM; in data set [2] it was more than 30000 nM.

In data set [1], `CCC1(N2CCC3(CC2)C(=O)NCC3c2ccc(F)cc2)CCCCC1` (racemic) displayed an EC50 of 1470 nM.

`O=C1NCC(c2ccccc2)C12CCN(C1(c3ccc(C(F)(F)F)cc3)CCCCC1)CC2` (single isomer, unassigned; diastereomer 2) had an EC50 in data set [1] of 6970 nM. Still for that read-out and setting: for `O=C1NCC(c2ccccc2)C12CCN(C1(C3CC3)CCCCC1)CC2` (racemic) the value was more than 30000 nM. The compound `O=C1NCC(c2ccccc2)C12CCN(C1(c3ccc(Cl)cc3)CCCCC1)CC2` (single isomer, unassigned; diastereomer 1) came in with an EC50 in data set [2] of more than 30000 nM. With `O=C1NCC(c2ccccc2)C12CCN(C1(c3cccs3)CCCCC1)CC2` (racemic), the EC50 in data set [1] worked out at 147 nM.

Turning to `O=C1NCC(c2ccc(F)cc2)C12CCN(C1(c3ccc(F)cc3)CCCCC1)CC2` (racemic), the EC50 in data set [2] is more than 30000 nM. Consider `COc1cccc(C2(N3CCC4(CC3)C(=O)NCC4c3ccccc3)CCCCC2)c1` (single isomer, unassigned; diastereomer 2), for which, in data set [1], the EC50 stood at 26200 nM. Same read-out and setting: the figure for `O=C1NCC(c2ccc(F)cc2)C12CCN(C1(c3cccc(OC(F)(F)F)c3)CCCCC1)CC2` (single isomer, unassigned; diastereomer 2) is 21500 nM; for `O=C1NCC(c2ccccc2)C12CCN(C1(c3ccsc3)CCCCC1)CC2` (racemic) it is 682 nM. The same measure, in the same setting: for `Cc1ccc(C2(N3CCC4(CC3)C(=O)NCC4c3ccc(F)cc3)CCCCC2)cc1` (single isomer, unassigned; diastereomer 1) the value was 1470 nM. Same read-out and setting: for `O=C1NCC(c2ccccc2)C12CCN(C1(c3ccccc3)CCOCC1)CC2` (single isomer, unassigned; diastereomer 4) the value was 525 nM. For `O=C1NCC(c2ccccc2)C12CCN(C1(c3ccc(Cl)cc3)CCCCC1)CC2` (single isomer, unassigned; diastereomer 2), in data set [2], the EC50 is more than 30000 nM. As to `CCCC1CNC(=O)C12CCN(C1(c3ccc(C)s3)CCCCC1)CC2` (racemic), in data set [1], the response was half-maximal at 113 nM (EC50).

Regarding `O=C1NCC(c2ccc(F)cc2)C12CCN(C1(c3cccc(F)c3)CCCCC1)CC2` (racemic), the values for the EC50 in data set [1] and in data set [2] were 393 nM and more than 30000 nM, respectively. Compound `CC(C)C1(N2CCC3(CC2)C(=O)NCC3c2ccc(F)cc2)CCCCC1` (racemic) registered an EC50 in data set [1] of 787 nM. On the same count and under the same terms, the figure for `N#Cc1cccc(C2(N3CCC4(CC3)C(=O)NCC4c3ccc(F)cc3)CCCCC2)c1` (racemic) is more than 30000 nM. The same measure, in the same setting: the figure for `O=C1NCC(c2ccccc2)C12CCN(C1(c3ccccc3)CCOCC1)CC2` (stereo in doubt; form 1) is 7290 nM; for `O=C1NCC(c2ccc(F)cc2)C12CCN(C1(c3ccsc3)CCCCC1)CC2` (stereo in doubt) it is 99 nM. Regarding `F.O=C1NCC(c2ccc(F)cc2)C12CCN(C1(c3ccc(F)cc3)CCCCC1)CC2` (single isomer, unassigned; diastereomer 1), the Fh was determined as 46% in the data set “in vitro [3]” and 67% in “in vitro [4]”. The EC50 in data set [2] is more than 30000 nM. As to `Cc1ccccc1C1(N2CCC3(CC2)C(=O)NCC3c2ccc(F)cc2)CCCCC1` (racemic), the EC50 was 350 nM in data set [1] and more than 30000 nM in data set [2]. Regarding `Cc1cccc(C2(N3CCC4(CC3)C(=O)NCC4c3ccc(F)cc3)CCCCC2)c1` (single isomer, unassigned; diastereomer 1), the EC50 in data set [1] was determined as 4000 nM.

Regarding `Cc1cccc(C2(N3CCC4(CC3)C(=O)NCC4c3ccc(F)cc3)CCCCC2)c1` (racemic), the results for the EC50 in data set [1] and in data set [2] were 563 nM and more than 30000 nM, respectively. The compound `O=C1NCC(c2ccc(C(F)(F)F)cc2)C12CCN(C1(c3ccc(F)cc3)CCCCC1)CC2` (racemic) gave an EC50 in data set [1] of 433 nM. The same measure, in the same setting: the figure for `COc1cccc(C2(N3CCC4(CC3)C(=O)NCC4c3ccccc3)CCCCC2)c1` (single isomer, unassigned; diastereomer 1) is 5610 nM; for `O=C1NCC(c2ccc(F)cc2)C12CCN(C1(c3cccc(OC(F)(F)F)c3)CCCCC1)CC2` (stereo in doubt) it is 16700 nM; for `O=C1NCC(c2ccccc2)C12CCN(C1(c3ccc(OC(F)(F)F)cc3)CCCCC1)CC2` (racemic) it is 4560 nM. For `O=C1NCC(c2ccccc2)C12CCN(C1(c3cccc(F)c3)CCCCC1)CC2` (single isomer, unassigned; diastereomer 1), the EC50 in data set [1] was 423 nM; in data set [2], more than 30000 nM. For the compound `O=C1NCC(c2ccccc2)C12CCN(C1(C3CCCCC3)CCCCC1)CC2` (racemic), the EC50 in data set [1] worked out at 15200 nM. In data set [2], `O=C1NCC(c2ccccc2)C12CCN(C1(c3ccccc3)CCCCC1)CC2` (single isomer, unassigned; diastereomer 1) displayed an EC50 of more than 30000 nM.

`N#Cc1ccc(C2(N3CCC4(CC3)C(=O)NCC4c3ccccc3)CCCCC2)cc1` (stereo in doubt): in data set [1], a half-maximal effect (EC50) was put at 16000 nM. Compound `O=C1NCC(c2ccccc2)C12CCN(C1(c3ccccc3)CCOCC1)CC2` (single isomer, unassigned; diastereomer 1) displayed an EC50 in data set [1] of 3660 nM. On to `O=C1NCC(c2ccc(F)cc2)C12CCN(C1(c3ccsc3)CCCCC1)CC2` (single isomer, unassigned; diastereomer 1), for which it took 213 nM to reach a half-maximal effect in data set [1] (EC50). The same measure, in the same setting: for `N#Cc1ccc(C2(N3CCC4(CC3)C(=O)NCC4c3ccccc3)CCCCC2)cc1` (single isomer, unassigned; diastereomer 1) the value was more than 30000 nM.

In the case of `O=C1NCC(c2ccccc2)C12CCN(C1(C3CCCC3)CCCCC1)CC2` (racemic), in data set [1], the EC50 was found to be 6290 nM. Regarding `Cc1cccc(C2(N3CCC4(CC3)C(=O)NCC4c3ccc(F)cc3)CCCCC2)c1` (single isomer, unassigned; diastereomer 2), the EC50 was 949 nM in data set [1] and more than 30000 nM in data set [2]. In data set [1], `O=C1NCC(c2ccc(F)cc2)C12CCN(C1(c3ccc(F)cc3)CCC1)CC2` (centres undefined) gave an EC50 of more than 30000 nM. On the same count and under the same terms, for `Cc1ccc(C2CNC(=O)C23CCN(C2(c4ccccc4)CCCCC2)CC3)cc1` (racemic) the value was 139 nM; for `Cc1ccc(C2CNC(=O)C23CCN(C2(c4ccc(F)cc4)CCCCC2)CC3)cc1` (racemic), 73 nM; for `CC(C)C1(N2CCC3(CC2)C(=O)NCC3c2ccccc2)CCCCC1` (racemic), 970 nM. Turning to `O=C1NCC(c2ccccc2)C12CCN(C1(c3cccc(F)c3)CCCCC1)CC2` (single isomer, unassigned; diastereomer 2), the figures for the EC50 in data set [1] and in data set [2] were 684 nM and more than 30000 nM, respectively. Consider `O=C1NCC(c2ccccc2)C12CCN(C1(c3ccccc3)CCOCC1)CC2` (stereo in doubt; form 2), for which the EC50 in data set [1] was more than 30000 nM.

As to `Cc1ccc(C2(N3CCC4(CC3)C(=O)NCC4c3ccccc3)CCCCC2)cc1` (single isomer, unassigned; diastereomer 2), the EC50 was 480 nM in data set [1] and more than 30000 nM in data set [2]. In data set [2], `O=C1NCC(c2ccccc2)C12CCN(C1(c3ccccc3)CCCCC1)CC2` (single isomer, unassigned; diastereomer 2) yielded an EC50 of more than 30000 nM.

For `CC(C)=CC1(N2CCC3(CC2)C(=O)NCC3c2ccccc2)CCCCC1` (racemic), in data set [1], the EC50 is 979 nM.

On to `CCCC1CNC(=O)C12CCN(C1(c3cccs3)CCCCC1)CC2` (racemic), for which the EC50 in data set [1] is 229 nM.

For `Cc1ccc(C2(N3CCC4(CC3)C(=O)NCC4c3ccc(F)cc3)CCCCC2)cc1` (single isomer, unassigned; diastereomer 2), in data set [1], the response was half-maximal at 419 nM (EC50). Same read-out and setting: the figure for `O=C1NCC(c2ccc(F)cc2)C12CCN(C1(C3CC3)CCCCC1)CC2` (racemic) is more than 30000 nM.

The values are drawn from ChEMBL document CHEMBL1145308 (Bioorg Med Chem Lett, 2006).
